Among the data in ChEMBL document CHEMBL3877278, “Antiproliferative activity of amino substituted benzo[b]thieno[2,3-b]pyrido[1,2-a]benzimidazoles explored by 2D and 3D cell culture system” (Eur J Med Chem, 2017) are IC50 and logD values, retold here.

One may read the IC50 as the concentration that gives 50% inhibition. High values mean a need for much substance, low ones inhibition by little substance. By logD is commonly meant lipophilicity at a set pH, counting ionised and neutral species.

A short description of series [1]: Antiproliferative activity against 2D culture of human MDA-MB-231 cells after 72 hrs MTS assay. The conditions noted are these: MDA-MB-231, 72 h. The series is classed as functional, cell-based. In general terms: Tetrazolium assays rely on reduction of a dye to a coloured formazan, in cell work by metabolically active cells.
Series [2] can be described thus: Antiproliferative activity against 2D culture of human SK-BR-3 cells after 72 hrs MTS assay. The series is classed as functional, cell-based. The conditions noted are these: SK-BR-3, 72 h.
A short description of series [3]: Antiproliferative activity against 2D culture of human T47D cells after 72 hrs MTS assay. The series is classed as functional, cell-based.
The nature of series [4]: Antiproliferative activity against 3D culture of human MDA-MB-231 cells after 72 hrs MTS assay. The series is classed as functional, cell-based. The conditions noted are these: MDA-MB-231, 72 h.
Series [5] is described as follows: Antiproliferative activity against 3D culture of human SK-BR-3 cells after 72 hrs MTS assay. The series is classed as functional, cell-based. Particulars: SK-BR-3, 72 h.
Series [6] is described as follows: Antiproliferative activity against 3D culture of human T47D cells after 72 hrs MTS assay. The series is classed as functional, cell-based.
A short description of series [7]: Lipophilicity, log D of the compound at pH 2.7 by HPLC method. The series is classed as physicochemical. Particulars: buffer.
The nature of series [8]: Lipophilicity, log D of the compound at pH 7.4 by HPLC method. The series is classed as physicochemical. The conditions noted are these: buffer, read-out: logD.

`N#Cc1cc2sc3cc(F)ccc3c2n2c1nc1ccccc12`: the IC50 was above 30 µM in series [1]; above 30 µM in series [2]; 1 µM in series [3]; above 30 µM in series [4]; above 30 µM in series [5]; above 30 µM in series [6]. The logD was 6.32 in series [7] and 6.3 in series [8].

As for `N#Cc1c(N2CCCCC2)c2ccccc2n2c1nc1ccccc12`, the IC50 is above 30 µM in series [1]; above 30 µM in series [2]; above 30 µM in series [3]; 3 µM in series [4]; above 30 µM in series [5]; above 30 µM in series [6]. Further, the figures for the logD in series [7] and in series [8] were 6.36 and 6.91, respectively.

For the compound `CC(C)CNc1ccc2cc(C#N)c3nc4ccccc4n3c2c1`, the IC50 in series [1] was 5 µM; in series [2], 1 µM; in series [3], 3 µM; in series [4], above 30 µM; in series [5], above 30 µM; in series [6] it was 19 µM. Besides, the logD worked out at 6.45 in series [7] and 6.58 in series [8].

Regarding `CN(C)CCCNc1c(C#N)c2nc3ccccc3n2c2ccccc12`, the IC50 in series [1] is 6 µM; in series [2], 4 µM; in series [3], 29 µM; in series [4], 7 µM; in series [5], above 30 µM; in series [6], above 30 µM. The logD in series [7] is -0.05; in series [8] it was 2.26.

For the compound `N#Cc1c(Cl)c2sc3cc(F)ccc3c2n2c1nc1ccccc12`, the IC50 in series [1], in series [2], in series [3], in series [4], in series [5] and in series [6] was above 30 µM each time. Also, the logD in series [7] stood at 4.04; in series [8], 3.2.

In the case of `COc1cccc2c1C(=O)c1c(O)c3c(c(O)c1C2=O)C[C@@](O)(C(=O)CO)C[C@@H]3O[C@H]1C[C@H](N)[C@H](O)[C@H](C)O1` [DOXORUBICIN], the IC50 in series [3] turned out to be 0.08 µM; in series [5], 1.29 µM; in series [6] it was 1.01 µM.

With `N#Cc1cc2ccc(F)cc2n2c1nc1ccccc12`, the IC50 in series [1] is 30 µM; in series [2], above 30 µM; in series [3], above 30 µM; in series [4], above 30 µM; in series [5], above 30 µM; in series [6], above 30 µM. Also, the logD came to 5.14 in series [7] and 5.11 in series [8].

Turning to `N#Cc1c(N2CCNCC2)c2sc3cc(N4CCNCC4)ccc3c2n2c1nc1ccccc12`, the IC50 is 4 µM in series [1]; 8 µM in series [2]; 12 µM in series [3]; 17 µM in series [4]; above 30 µM in series [5]; above 30 µM in series [6]. The logD in series [7] is -0.51; in series [8], 1.89.

For `N#Cc1c(=O)c2sc3cc(F)ccc3c2n2c1[nH]c1ccccc12`, the half-maximal inhibitory concentration (IC50) in series [1], in series [2], in series [3], in series [4], in series [5] and in series [6] was above 30 µM throughout. Besides, the logD in series [7] was determined as 4.04; in series [8], 3.2.

With `CC(C)CNc1ccc2c(NCC(C)C)c(C#N)c3nc4ccccc4n3c2c1`, the IC50 in series [1] was above 30 µM; in series [2], 5 µM; in series [3] it was 12 µM; in series [4] it was above 30 µM; in series [5] it was above 30 µM; in series [6] it was 19 µM.

Regarding `CC(C)CNc1ccc2c(c1)sc1c(NCC(C)C)c(C#N)c3nc4ccccc4n3c12`, the IC50 is above 30 µM in series [1]; above 30 µM in series [2]; 4 µM in series [3]; above 30 µM in series [4]; above 30 µM in series [5]; 8 µM in series [6].

Consider `N#Cc1c(N2CCCCC2)c2sc3cc(N4CCCCC4)ccc3c2n2c1nc1ccccc12`, for which the IC50 in series [1], in series [2], in series [3], in series [4], in series [5] and in series [6] was above 30 µM each time.
